Experimental findings from US12527774B2, “Estrogen-related receptor alpha modulators” (LEAD PHARMA HOLDING B.V., priority 2019, dated 2026) are described below.

In one experiment the target is full length ERRα (Homo sapiens (Human), UniProt P11474). Description: Full Length ERRα Reporter Gene Assay. The experiment is classed as cell-based. The note with it: SK-BR-3 cells, ERRα-RE luciferase reporter, overnight incubation; for IC50: read-out: mean pIC50 (converted). The text has this:
Full Length ERRα Reporter Gene Assay
A method was established to quantitatively screen the potency of compounds with inverse agonistic activity on the nuclear receptor ERRα of the human species. The assay allows intra-cellular screening of ERRα inverse agonists in SK-BR-3 cells using an over-expression construct coding full length ERRα and a reporter construct containing an ERRα Response Element (RE) and a luciferase gene for read out. The activity is expressed in log IC50 values and can be used to determine SAR of compound families or to de-select compounds.
In this assay, reporter cells are obtained by transient co-transfection of two constructs in SK-BR-3 cells using standard transfection techniques. The first construct contains a response element of the nuclear receptor ERRα (Plasmid pLP2175, Reporter construct ERRα-RE/luc2P, cloned variant of ERRα_v2_synthRE, Switchgear Genomics, Catalog Number S900089). This sequence drives the transcription of the luciferase reporter gene in response to binding of an ERRα protein encoded by the second construct (Plasmid pLP2124: full length ERRα expression construct using pcDNA3.1/Hygro(+) as background, Invitrogen Catalog Number V87020).
The day after transfection, cells were plated into 96 well plates, test compound was added and the plates were incubated overnight. Subsequently, the firefly luciferase activity was quantified using luciferase detection reagent and luminescence readout.
Detailed Assay Description
Transfection is performed on pre-seeded SK-BR-3 cells in a T175 flask. One transfected T175 flask is sufficient for seeding 3 to 4 MW96 plates the next day, depending on the confluency of the transfected cells.
Two different media are used in this protocol for cell treatment: 1) Culture medium, i.e. McCoy's 5a with phenol red (BioWhittaker Supplier Number 12-688F), 10% FBS and 1× Penstrep.; and, 2) Assay medium, i.e. McCoy's 5a Medium phenol red free (HyClone Product Code SH30270.01) with 2% Charcoal Stripped FBS and 1× Penstrep. Compound dilutions are prepared in assay medium.
Cells are seeded at least 2 days in advance to allow the cells to adhere well to flask before transfection. Cells should be 50-80% confluent at the day of transfection.
SKBR3 cells were transfected with the transcriptional reporter construct pLP2175 and the ERRα expression construct pLP2124 (as described above).
68 μL of Lipofectamine LTX transfection reagent (Invitrogen Catalog Number 15338-100) was added dropwise to 8.9 ml Opti-MEM I Reduced Serum Medium (Gibco Catalog Number 51985-026) and incubated at room temperature for 5 to 20 minutes. 8.9 ml of this reagent mixture was added to 22 μg pLP2175+22 μg pLP2124 (ratio 1:1 and total volume 10 ml), and incubated at room temperature for 25 minutes.
10 minutes before adding the transfection mix to SKBR3 cells in a T175 flask, the culture medium was refreshed with 20 mL culture medium. Subsequently, the 10 mL DNA-Opti-MEM-Lipofectamine mixture was gently added to the cells, followed by overnight (16-24 hours) incubation at 37° C. and 5% CO2.
To harvest SKBR3 cells from a T175 flask, first the medium was removed. Subsequently, cells were washed with Phosphate Buffered Saline (PBS) (Lonza), after which the PBS was removed. To dissociate the cells, 2 ml of TrypLE Express (Invitrogen) was added to the flask, followed by incubation at 37° C. for 5 minutes. The flask was tapped until cells were detached from the bottom. Cells were collected in 8 mL of culture medium (McCoy's 5α, 10% FBS, penstrep), to achieve a single cell suspension. After cell count, cells were spun down for 5 minutes at 300 g. Next cell pellets were re-suspended to 25000 cells/80 μl assay medium (McCoy's 5a phenol red free, 2% charcoal stripped FBS, penstrep).
For compound screening, the cells were harvested (as described above). 80 μL of cell suspension (25,000 cells) was plated per well into a white, flat bottom, tissue culture treated, 96 well screening plates (Greiner). […]
(Reporter assays use an easily measured gene product as a stand-in for the process of interest.)

Experiment [1] concerns the target ERRα ligand binding domain (ERRα-LBD) (Homo sapiens (Human), UniProt P11474). Description: ERRα AlphaScreen Assay. The experiment is classed as biochemical. The note with it: disruption of binding of ERRα-LBD protein to biotin-PGC1α-3 co-activator peptide; for IC50: read-out: mean pIC50 (converted). A digest of the protocol: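 Disruption of co-activator binding read by AlphaScreen: compounds in triplicate, 1% DMSO, Tris pH 7.5 buffer, room temperature. Bacterially expressed 6His-SUMO-ERRα-LBD at 0.81 nM with beads for 1 h, then 15 nM biotinylated PGC1α peptide for 2 h. IC50 from four-parameter fits, averaged as pIC50.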
For orientation: Alpha assays give light when donor and acceptor beads are brought close together.

ERRα ligand binding domain (ERRα-LBD), sequence (P11474 193-421): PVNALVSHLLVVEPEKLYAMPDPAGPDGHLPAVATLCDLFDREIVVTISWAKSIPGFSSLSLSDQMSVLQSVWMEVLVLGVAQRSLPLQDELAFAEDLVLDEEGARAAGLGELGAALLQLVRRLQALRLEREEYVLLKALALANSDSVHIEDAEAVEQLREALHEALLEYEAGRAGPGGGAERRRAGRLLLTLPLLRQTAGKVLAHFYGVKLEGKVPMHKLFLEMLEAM
full length ERRα, sequence (P11474 whole entry): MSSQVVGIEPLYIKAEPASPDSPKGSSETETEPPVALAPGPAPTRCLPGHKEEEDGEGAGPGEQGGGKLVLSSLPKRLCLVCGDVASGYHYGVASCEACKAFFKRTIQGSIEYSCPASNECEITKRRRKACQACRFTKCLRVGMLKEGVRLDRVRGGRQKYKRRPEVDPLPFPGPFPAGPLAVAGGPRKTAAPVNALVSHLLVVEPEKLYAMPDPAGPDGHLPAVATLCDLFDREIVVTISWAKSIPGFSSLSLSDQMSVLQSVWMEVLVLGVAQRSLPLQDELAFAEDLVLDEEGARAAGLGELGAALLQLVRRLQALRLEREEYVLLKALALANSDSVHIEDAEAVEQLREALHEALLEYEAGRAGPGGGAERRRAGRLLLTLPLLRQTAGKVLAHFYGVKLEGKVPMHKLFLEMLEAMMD

On to `CCc1ccc(COc2ccc(C3CC(=O)Nc4n[nH]cc43)cc2OC)c(C(F)(F)F)c1` (single isomer, unassigned; (+)) [Example 207, (+)-4-(4-{[4-ethyl-2-(trifluoromethyl)phenyl]methoxy}-3-methoxyphenyl)-2H,4H,5H,6H,7H-pyrazolo[3,4-b]pyridin-6-one], for which the IC50 on full length ERRα is no more than 316 nM. Regarding `COc1cc(C2CC(=O)Nc3n[nH]cc32)ccc1OCc1ccc(CCO)cc1C(F)(F)F` (single isomer, unassigned; (+)) [Example 211, (+)-4-(4-{[4-(2-hydroxyethyl)-2-(trifluoromethyl)phenyl]methoxy}-3-methoxyphenyl)-2H,4H,5H,6H,7H-pyrazolo[3,4-b]pyridin-6-one], the IC50 in experiment [1] was 10 to 100 nM; on full length ERRα, no more than 316 nM. On to `COc1ccc(COc2ccc(C3CC(=O)Nc4n[nH]cc43)cc2OC)c(C(F)(F)F)c1` (single isomer, unassigned; (-)) [Example 198, (−)-4-(3-methoxy-4-{[4-methoxy-2-(trifluoromethyl)phenyl]methoxy}phenyl)-2H,4H,5H,6H,7H-pyrazolo[3,4-b]pyridin-6-one], for which the IC50 at full length ERRα was no more than 316 nM. On the same count and under the same terms, to `COc1cc(C2CC(=O)Nc3n[nH]cc32)ccc1OCc1ccc(C(C)=O)cc1C(F)(F)F` (single isomer, unassigned; (-)) [Example 200, (−)-4-(4-{[4-acetyl-2-(trifluoromethyl)phenyl]methoxy}-3-methoxyphenyl)-2H,4H,5H,6H,7H-pyrazolo[3,4-b]pyridin-6-one] belongs no more than 316 nM; to `COc1ccc(COc2ccc(C3CC(=O)Nc4[nH]nnc43)cc2OC)c(C(F)(F)F)c1` (single isomer, unassigned; (-)) [Example 202, (−)-7-(3-methoxy-4-{[4-methoxy-2-(trifluoromethyl)phenyl]methoxy}phenyl)-3H,4H,5H,6H,7H-[1,2,3]triazolo[4,5-b]pyridin-5-one], no more than 316 nM. On to `COc1cc(C2CC(=O)Nc3n[nH]cc32)ccc1OCc1ccc(CCO)cc1C(F)(F)F` (single isomer, unassigned; (-)) [Example 212, (−)-4-(4-{[4-(2-hydroxyethyl)-2-(trifluoromethyl)phenyl]methoxy}-3-methoxyphenyl)-2H,4H,5H,6H,7H-pyrazolo[3,4-b]pyridin-6-one], for which the “mean pIC50” value on full length ERRα is no less than 6.5. In the case of `COc1cc(C2CC(=O)Nc3n[nH]cc32)ccc1COc1ccc(C)cc1C(F)(F)F` (single isomer, unassigned; (-)) [Example 214, (−)-4-(3-methoxy-4-{[4-methyl-2-(trifluoromethyl)phenoxy]methyl}phenyl)-2H,4H,5H,6H,7H-pyrazolo[3,4-b]pyridin-6-one], the “mean pIC50” value in experiment [1] is recorded as no less than 8. The IC50 on full length ERRα is no more than 316 nM.

For the molecule `COc1cc(C2CC(=O)Nc3n[nH]cc32)ccc1OCc1ccccc1C(F)(F)F` (stereo not shown) [Example 1, 4-(3-methoxy-4-{[2-(trifluoromethyl)phenyl]methoxy}phenyl)-2H,4H,5H,6H, 7H-pyrazolo[3,4-b]pyridin-6-one], in experiment [1], the “mean pIC50” value was no less than 8. For the same molecule, the IC50 on full length ERRα was no more than 316 nM. In the case of `COc1cc(C2CC(=O)Nc3n[nH]cc32)ccc1OCc1ccc(C(F)(F)F)cc1C(F)(F)F` (stereo not shown) [Example 8, 4-(4-{[2,4-bis(trifluoromethyl)phenyl]methoxy}-3-methoxyphenyl)-2H,4H,5H,6H, 7H-pyrazolo[3,4-b]pyridin-6-one], the “mean pIC50” value in experiment [1] was no less than 8. The IC50 at full length ERRα is no more than 316 nM.

In the case of `COc1cc(C2CC(=O)Nc3n[nH]cc32)ccc1OCc1ccc(F)cc1C(F)(F)F` (stereo not shown) [Example 9, 4-(4-{[4-fluoro-2-(trifluoromethyl)phenyl]methoxy}-3-methoxyphenyl)-2H,4H,5H,6H, 7H-pyrazolo[3,4-b]pyridin-6-one], the results for the IC50 (in experiment [1]; on full length ERRα) were 10 to 100 nM and no more than 316 nM, respectively. Turning to `COc1cc(C2CC(=O)Nc3n[nH]cc32)ccc1OCc1ccc(Cl)cc1C(F)(F)F` (stereo not shown) [Example 15, 4-(4-{[4-chloro-2-(trifluoromethyl)phenyl]methoxy}-3-methoxyphenyl)-2H,4H,5H,6H, 7H-pyrazolo[3,4-b]pyridin-6-one], the “mean pIC50” value in experiment [1] is reported as no less than 8. For the same molecule, the IC50 at full length ERRα was no more than 316 nM. For `COc1ccc(COc2ccc(C3CC(=O)Nc4n[nH]cc43)cc2OC)c(C(F)(F)F)c1` (stereo not shown) [Example 19, 4-(3-methoxy-4-{[4-methoxy-2-(trifluoromethyl)phenyl]methoxy}phenyl)-2H,4H,5H,6H,7H-pyrazolo[3,4-b]pyridin-6-one], in that order: no less than 8 and no more than 316 nM. For `COc1cc(C2CC(=O)Nc3n[nH]cc32)ccc1OCc1ccccc1OC(F)(F)F` (stereo not shown) [Example 24, 4-(3-methoxy-4-{[2-(trifluoromethoxy)phenyl]methoxy}phenyl)-2H,4H,5H,6H,7H-pyrazolo[3,4-b]pyridin-6-one], in that order: no less than 8 and no more than 316 nM. For `COc1cc(C2CC(=O)Nc3n[nH]cc32)ccc1OCc1cc(C)ccc1C(F)(F)F` (stereo not shown) [Example 32, 4-(3-methoxy-4-{[5-methyl-2-(trifluoromethyl)phenyl]methoxy}phenyl)-2H,4H,5H,6H,7H-pyrazolo[3,4-b]pyridin-6-one], in that order: no less than 8 and no more than 316 nM.

Take `COc1cc(C2CC(=O)Nc3n[nH]cc32)ccc1OCc1ccc(Br)cc1C(F)(F)F` (stereo not shown) [Example 33, 4-(4-{[4-bromo-2-(trifluoromethyl)phenyl]methoxy}-3-methoxyphenyl)-2H,4H,5H,6H,7H-pyrazolo[3,4-b]pyridin-6-one]: the “mean pIC50” value in experiment [1] was no less than 8. Further, the IC50 on full length ERRα is no more than 316 nM.

As to `COc1cc(C2CC(=O)Nc3n[nH]cc32)ccc1OCc1cccc(OC)c1C(F)(F)F` (stereo not shown) [Example 36, 4-(3-methoxy-4-{[3-methoxy-2-(trifluoromethyl)phenyl]methoxy}phenyl)-2H,4H,5H,6H,7H-pyrazolo[3,4-b]pyridin-6-one], the “mean pIC50” value in experiment [1] is listed as no less than 8. In addition, the IC50 at full length ERRα was no more than 316 nM. For `COc1cc(C2CC(=O)Nc3n[nH]cc32)ccc1OCc1ccccc1C(C)(C)C` (stereo not shown) [Example 40, 4-{4-[(2-tert-butylphenyl)methoxy]-3-methoxyphenyl}-2H,4H,5H,6H,7H-pyrazolo[3,4-b]pyridin-6-one], the “mean pIC50” value in experiment [1] was no less than 8. Besides, the IC50 at full length ERRα was no more than 316 nM.

`COC(=O)C1C(=O)Nc2n[nH]cc2C1c1ccc(COc2ccc(C(F)(F)F)cc2C(F)(F)F)c(OC)c1` (stereo not shown) [Example 187, methyl 4-(4-{[2,4-bis(trifluoromethyl)phenoxy]methyl}-3-methoxyphenyl)-6-oxo-2H,4H,5H,6H, 7H-pyrazolo[3,4-b]pyridine-5-carboxylate]: the IC50 in experiment [1] was 100 to 1000 nM. On the same count and under the same terms, to `COc1cc(C2CC(=O)Nc3c[nH]cc32)ccc1COc1ccc(C(F)(F)F)cc1C(F)(F)F` (stereo not shown) [Example 190, 4-(4-{[2,4-bis(trifluoromethyl)phenoxy]methyl}-3-methoxyphenyl)-1H,2H,3H,4H, 6H-pyrrolo[3,4-b]pyridin-2-one] belongs 10 to 100 nM.
